The text below walks through data of US7511145B2 (Genelabs Technologies, Inc., priority 2003, dated 2009).

In the test the target is T1, HCV-NS5b (Hepatitis C virus genotype 1b, UniProt Q9WMX2).
T1 construct: (His)6 (C); made in house; host or cells: XL-1 cells (E. coli), IPTG-inducible plasmid, nickel-NTA purification
Nature of the test: HCV-NS5b enzyme assay (incorporation of radiolabeled UTP). The note with it: for inhibition at 33 µM / % inh@33: enzyme inhibition at compound concentration of 33 uM; for inhibition at 100 µM: read-out: % inh@100, enzyme inhibition at compound concentration of 100 uM; for % inh@100: enzyme inhibition at compound concentration of 100 uM. The class given is biochemical. In short, it runs like this:
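Percent inhibition, background-corrected against uninhibited control, was measured at 100 and 33 uM compound. Incorporation of [3H]-UTP (10 μM each NTP) into biotinylated HCV-template RNA, 37° C for 2 h, pH 7.5, scintillation proximity. Enzyme: C-terminally truncated (21 aa), His6-tagged NS5b from XL-1.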

Regarding `COc1ccc(-c2ccc(Cl)cc2)c(-c2ccc3cc(-c4nc5cc(C(=O)O)cnc5n4C4CCCCC4)ccc3n2)c1` [Compound 537, 2-[2-(4′-chloro-4-methoxy-biphen-2-yl)-quinolin-6-yl]-3-cyclohexyl-3H-imidazo[4,5-b]pyridine-6-carboxylic acid], the inhibition at 33 µM was determined as 100% and the inhibition at 100 µM was 99.8%.

Regarding `CCOC(=O)c1cnc2c(c1)nc(-c1ccc3nc(-c4cc(O)ccc4-c4ccc(Cl)cc4)ccc3c1)n2C1CCCCC1` [Compound 538, 2-[2-(4′-chloro-4-hydroxy-biphen-2-yl)-quinolin-6-yl]-3-cyclohexyl-3H-imidazo[4,5-b]pyridine-6-carboxylic acid Ethyl Ester], the inhibition at 33 µM stood at 56.6% and the inhibition at 100 µM is 72.8%.

In the case of `O=C(O)c1cnc2c(c1)nc(-c1ccc3nc(-c4cc(C(=O)N5CCCC5)ccc4-c4ccc(Cl)cc4)ccc3c1)n2C1CCCCC1` [Compound 539, 2-{2-[4′-chloro-4-(pyrrolidine-1-carbonyl)-biphen-2-yl]-quinolin-6-yl}-3-cyclohexyl-3H-imidazo[4,5-b]pyridine-6-carboxylic acid], the inhibition at 33 µM came to 104% and the inhibition at 100 µM amounted to 102%.

Turning to `O=C(c1ccc(-c2ccc(Cl)cc2)c(-c2ccc3cc(-c4nc5ccccc5n4C4CCCCC4)ccc3n2)c1)N1CCCC1` [Compound 540], the “% inh@33” value is 91.13% and the “% inh@100” value was 95.05%.

Turning to `NC(=O)CC[C@H](NC(=O)c1ccc2c(c1)nc(-c1ccc3nc(-c4ccccc4)cnc3c1)n2C1CCCCC1)C(=O)O` [Compound 541, 4-Carbamoyl-2-{[1-cyclohexyl-2-(2-phenyl-quinoxalin-6-yl)-1H-benzoimidazole-5-carbonyl]-amino}-butyric acid], the inhibition at 33 µM stood at 76.1% and the inhibition at 100 µM was 98.1%.

As for `NC(=O)[C@H](Cc1ccccc1)NC(=O)c1ccc2cc(-c3nc4cc(C(=O)O)ccc4n3C3CCCCC3)ccc2n1` [Compound 542, 2-[2-(1-Carbamoyl-2-phenylethylcarbamoyl)quinolin-6-yl]-1-cyclohexyl-1H-benzimidazole-5-carboxylic acid], the inhibition at 33 µM came to 81.1% and the inhibition at 100 µM is 98.6%.

As for `COc1ccc(-c2ccc(Cl)cc2)c(-c2ccc3cc(-c4nc5cc(C(=O)O)ccc5n4C4CCC(C)CC4)ccc3n2)c1` (stereo not shown) [Compound 543, 2-[2-(4′-chloro-4-methoxy-biphen-2-yl)-quinolin-6-yl]-1-(4-methyl-cyclohexyl)-1H-benzoimidazole-5-carboxylic acid], the inhibition at 33 µM is 102% and the inhibition at 100 µM was 102%.

As for `COc1ccc(-c2ccccc2F)c(-c2ccc3cc(-c4nc5cc(C(=O)O)ccc5n4C4CCCCC4)ccc3n2)c1` [Compound 544, 1-Cyclohexyl-2-[2-(2′-fluoro-4-methoxy-biphen-2-yl)-quinolin-6-yl]-1H-benzoimidazole-5-carboxylic acid], the inhibition at 33 µM turned out to be 102% and the inhibition at 100 µM was 100%.

Turning to `COc1ccc(C2CCCCC2)c(-c2ccc3cc(-c4nc5cc(C(=O)O)ccc5n4C4CCCCC4)ccc3n2)c1` [Compound 545, 1-Cyclohexyl-2-[2-(2-cyclohexyl-5-methoxy-phenyl)-quinolin-6-yl]-1H-benzoimidazole-5-carboxylic acid], the inhibition at 33 µM is 99.2% and the inhibition at 100 µM was determined as 101%.

With `CN(C(=O)c1ccc2cc(-c3nc4cc(C(=O)O)ccc4n3C3CCCCC3)ccc2n1)c1ccc(Cl)cc1` [Compound 546], the inhibition at 33 µM is 95.3% and the inhibition at 100 µM is 102%.

On to `COc1ccc(-c2ccc(Cl)cc2)c(-c2ccc3cc(-c4nc5cc(C(=O)O)ccc5n4C4CCC(C)CC4)ccc3n2)c1` (stereo not shown) [Compound 547, 2-[2-(4′-chloro-4-methoxy-biphen-2-yl)-quinolin-6-yl]-1-(4-methyl-cyclohexyl)-1H-benzoimidazole-5-carboxylic acid], for which the “% inh@33” value (33 µM) is 102.71%. For the same molecule, for the setting “100 µM”, the “% inh@100” value was 101.82%.

Consider `COc1ccc(-c2ccccc2C)c(-c2ccc3cc(-c4nc5cc(C(=O)O)ccc5n4C4CCCCC4)ccc3n2)c1` [Compound 548], for which the inhibition at 33 µM came to 103% and the inhibition at 100 µM was 101%.

As to `O=C(O)c1ccc2c(c1)nc(-c1ccc3nc(-c4cc(C(=O)N5CCCC5)ccc4-c4ccc(F)cc4)ccc3c1)n2C1CCCCC1` [Compound 549, 1-Cyclohexyl-2-{2-[4′-fluoro-4-(pyrrolidine-1-carbonyl)biphen-2-yl]quinolin-6-yl}-1H-benzimidazole-5-carboxylic acid], the inhibition at 33 µM worked out at 100% and the inhibition at 100 µM was 102%.

As to `CC(C)N(C(=O)c1ccc2cc(-c3nc4cc(C(=O)O)ccc4n3C3CCCCC3)ccc2n1)c1ccc(Cl)cc1` [Compound 550, 2-{2-[(4-Chlorophenyl)isopropylcarbamoyl]quinolin-6-yl}-1-cyclohexyl-1H-benzimidazole-5-carboxylic acid], the inhibition at 33 µM came to 99.1% and the inhibition at 100 µM worked out at 102%.

Regarding `O=C(O)c1ccc2c(c1)nc(-c1ccc3nc(C(=O)N(c4ccc(Cl)cc4)C4CCCCC4)ccc3c1)n2C1CCCCC1` [Compound 551, 2-{2-[(4-Chlorophenyl)cyclohexylcarbamoyl]quinolin-6-yl}-1-cyclohexyl-1H-benzimidazole-5-carboxylic acid], the inhibition at 33 µM amounted to 87.5% and the inhibition at 100 µM was found to be 95.7%.

For `COc1ccc(-c2ccccc2OC)c(-c2ccc3cc(-c4nc5cc(C(=O)O)ccc5n4C4CCCCC4)ccc3n2)c1` [Compound 552, 1-Cyclohexyl-2-[2-(4,2′-dimethoxy-biphen-2-yl)-quinolin-6-yl]-1H-benzoimidazole-5-carboxylic acid], the inhibition at 33 µM came out at 101% and the inhibition at 100 µM is 101%.

With `COc1ccc(-c2ccc(Cl)cc2)c(-c2ccc3cc(-c4nc5cc(C(=O)O)ccc5n4C4CC(C)CC(C)(C)C4)ccc3n2)c1` (stereo not shown) [Compound 555, 2-[2-(4′-chloro-4-methoxy-biphen-2-yl)-quinolin-6-yl]-1-(3,3,5-trimethyl-cyclohexyl)-1H-benzoimidazole-5-carboxylic acid], the inhibition at 33 µM turned out to be 101% and the inhibition at 100 µM worked out at 101%.

For `COc1ccc(-c2ccc(Cl)cc2)c(-c2ccc3cc(-c4nc5cc(C(=O)O)ccc5n4C4CCCCC4C)ccc3n2)c1` (stereo not shown) [Compound 556, 2-[2-(4′-Chloro-4-methoxy-biphen-2-yl)-quinolin-6-yl]-1-(2-methyl-cyclohexyl)-1H-benzoimidazole-5-carboxylic acid], the inhibition at 33 µM was 103% and the inhibition at 100 µM was 102%.

For the molecule `CCc1ccc(-c2ccc(OC)cc2-c2ccc3cc(-c4nc5cc(C(=O)O)ccc5n4C4CCCCC4)ccc3n2)cc1` [Compound 557, 1-Cyclohexyl-2-[2-(4′-ethyl-4-methoxy-biphen-2-yl)-quinolin-6-yl]-1H-benzoimidazole-5-carboxylic acid], the inhibition at 33 µM was found to be 103% and the inhibition at 100 µM amounted to 101%.

For `COc1ccc(-c2ccc(Cl)cc2)c(-c2ccc3cc(-c4nc5cc(C(=O)O)ccc5n4C4CCNCC4)ccc3n2)c1` [Compound 558, 2-[2-(4′-Chloro-4-methoxy-biphen-2-yl)-quinolin-6-yl]-1-piperidin-4-yl-1H-benzoimidazole-5-carboxylic acid], the inhibition at 33 µM worked out at 32.5% and the inhibition at 100 µM amounted to 77.3%.
